Experimental data published in publication PMC8536644, “Enigmatic mechanism of the N-vinylpyrrolidone hepatocarcinogenicity in the rat” (Archives of Toxicology, 2021).
Values joined by “and” are separate entries in the source; they are usually repeats but may differ in a detail not shown here. Identical values can stand only once. Like-named read-outs stand apart in the source and are kept apart here. Marks after values point to notes of the source that are not given here.

Experiments:
Klebsiella pneumoniae = conditions: ref MAK [1994]; cited from earlier work
CYP 2B/3A = test: BROD assay, lung microsomes; format: in vivo, rat; conditions: male rats
Procedure: The alkoxyresorufin dealkylase (AROD) assays were based on the method by Burke et al. ([1994]).
The frozen livers and lungs of the NVP-treated male Wistar rats were thawed and washed with isotonic (0.9%) NaCl solution. The tissues were ice-cooled homogenized (1 g tissue: 3 mL 0.25 M saccharose in 1 mM disodium EDTA, pH 7.4) and centrifuged (9000 g, 15 min, 4 °C). The supernatant fraction was centrifuged (100 000 g, 60 min, 4 °C). The resulting supernatant fraction was used for the palmitoyl-CoA-oxidase assay described further down. The pellet was taken up in 150 mM aqueous KCl solution, recentrifuged (100 000 g, 60 min, 4 °C) and the pellet taken up in 1 mL/g liver or 0.5 mL/g lung resuspension buffer (1 mM GSH, 1 mM disodium EDTA, 4 mM MgCl2, 0.1 M KH2PO4, pH 7.5 and 4% glycerol). Aliquots were stored at − 80 °C.
For determination of the enzyme activities in triplicates, 85 µL master mix (100 mM TrisHCl pH 7.5, 2 mM 5’AMP, 5 mM G-6-P, 10 U G-6-P-DH, 10 mM Dicumarol, 10 mM MgCl2, either 2 µM EROD or 10 µM PROD or 5 µM BROD) was added to 10 µL microsomal fraction (1 mg protein/mL). The reaction was started by the addition of 5 µL 2 mM NADPH (dissolved in 100 mM TrisHCl pH 7.5) followed by incubation at 37 °C for 16 min. The activity was determined by measuring the increase of the fluorescence (excitation at 550 nm, emission at 585 nm) due to resorufin formation compared with resorufin standards, which had been prepared by dissolving tenfold concentrated solutions in DMSO, which were then diluted tenfold in 100 mM TrisHCl pH 7.5.

rat liver = test: Glutathione recycling assay (tGSH, GSSG) in liver; format: in vivo; conditions: for GSH (GSH recycling assay), individual animal / GSSG, individual animal / tGSH, individual animal / GSH (GSH recycling assay), group (mean ± SD) / GSSG, group (mean ± SD) / tGSH, group (mean ± SD): rat liver; for GSH (GSH recycling assay), group (mean ± SD) / GSSG, group (mean ± SD) / tGSH, group (mean ± SD): n = 6;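 for GSSG, group (mean ± SD): Nanomoles per gram liver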;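 for GSSG, individual animal: Nanomoles per gram liver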;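 for Mean GSSG concentration: Nanomoles per gram liver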
Procedure: Glutathione recycling assay was adapted from the method described by Gallagher ([1994]) and performed using the 14 000 g supernatant fraction derived from the 5-SSA-treated liver homogenate of the NVP-exposed male Wistar rats as described above under “Non-protein-bound sulfhydryl groups”. The obtained samples were diluted fivefold with the 5% 5-SSA solution.
For determination of total glutathione (tGSH, i.e. GSH + GSSG) a GSH control (640 µM in 5% 5-SSA, diluted by a factor of 4 for application in the assay) and a tGSH control (200 µM in 5% 5-SSA, containing 10% GSSG) were treated the same way as the samples. To 5 µL of sample, controls as well as GSH standards (dissolved in 5% 5-SSA solution) 190 µL tGSH master mix, consisting of phosphate/EDTA buffer (125 mM KH2PO4/7 mM EDTA, pH 7.5), 0.4 mM NADPH and 0.5 U/L glutathione reductase suspension, were added. Determinations were performed in triplicates. The reaction was started by adding 5 µL of 24 mM DTNB in methanol. The absorption at λ = 412 nm was measured every 60 s for 5 min.
For determination of GSSG a control (20 μM GSSG, 160 μM GSH) was treated the same way as the samples. 125 µL sample, control, GSSG standards and blank, respectively, were combined with 5 µL 2-vinylpyridine (Sigma Aldrich, Steinheim, Germany). 20 µL of […] triethylamine was pipetted to the upper rim of the vessel such that after mixing the pH value was between 7 and 7.5 and reaction was allowed to proceed in the thermomixer at 600 rpm for 1 h at 26 °C in order to derivatize the GSH in the sample. The determination of GSSG was then performed in analogy to the determination of tGSH described above. The absorption at λ = 412 nm was measured every 60 s for 10 min.

mice [1] = tested on: mice; parameters: method as in Klimisch et al. [1997b]; conditions: inhalation, ref Klimisch et al. [1997b]; cited from earlier work
mice [2] = tested on: mice; parameters: method as in BASF [1993]; conditions: oral application, ref BASF [1993]; cited from earlier work
Sprague–Dawley rats = conditions: cited from earlier work; for Larynx squamous carcinoma, incidence / Liver hepatocellular carcinoma, incidence / Nasal cavity adenocarcinoma, incidence / Nasal cavity adenoma, incidence: 24 months inhalation, 60 animals, ref Klimisch et al. (1997a)
[3] = 5 ppm NVP inhalation, animals 7-12
[4] = 10 ppm NVP inhalation, animals 13-18
[5] = 20 ppm NVP inhalation, animals 19-24

## C=CN1CCCC1=O [NVP, N-vinylpyrrolidone]
Klebsiella pneumoniae
  Klebsiella pneumoniae fluctuation (point mutation) test result: negative
CYP 2B/3A; 5 ppm
  BROD activity in lung microsomes: 22.9 ± 11.0 pmol/min/mg protein
CYP 2B/3A; 10 ppm
  BROD activity in lung microsomes: 25.5 ± 19.8 pmol/min/mg protein
CYP 2B/3A; 20 ppm
  BROD activity in lung microsomes: 82.1 ± 76.8 pmol/min/mg protein
Rat liver; 5 ppm
  GSH/GSSG ratio: 42.2 ± 18.4
  Mean GSSG concentration: 116 ± 32 nmol/g liver
  Proportion of reduced glutathione GSH within total glutathione tGSH: 95.0% ± 1.4%
Rat liver; 10 ppm
  GSH/GSSG ratio: 31.2 ± 4.6
  Mean GSSG concentration: 135 ± 12 nmol/g liver
  Proportion of reduced glutathione GSH within total glutathione tGSH: 93.9% ± 0.8%
Rat liver; 20 ppm
  GSH/GSSG ratio: 30.0 ± 4.6
  Mean GSSG concentration: 136 ± 22 nmol/g liver
  Proportion of reduced glutathione GSH within total glutathione tGSH: 93.6% ± 0.9%
Rat liver; NVP-exposed male rats, 5-20 ppm
  GSH concentration (GSH recycling assay), range: 3.06–5.48 µmol/g liver
Rat liver; [3]
  GSH (GSH recycling assay), individual animal: 3.84 µmol/g liver and 5.48 µmol/g liver and 4.63 µmol/g liver and 3.93 µmol/g liver and 5.04 µmol/g liver and 4.00 µmol/g liver
  GSSG, individual animal: 133 nmol/g liver and 71 nmol/g liver and 144 nmol/g liver and 114 nmol/g liver and 149 nmol/g liver and 87 nmol/g liver
  tGSH, individual animal: 4.10 µmol/g liver and 5.63 µmol/g liver and 4.92 µmol/g liver and 4.16 µmol/g liver and 5.33 µmol/g liver and 4.17 µmol/g liver
Rat liver; 5 ppm NVP inhalation
  GSH (GSH recycling assay), group (mean ± SD): 4.49 ± 0.68 µmol/g liver
  GSSG, group (mean ± SD): 116 ± 32 nmol/g liver
  tGSH, group (mean ± SD): 4.72 ± 0.67 µmol/g liver
Rat liver; [4]
  GSH (GSH recycling assay), individual animal: 3.44 µmol/g liver and 3.95 µmol/g liver and 4.70 µmol/g liver and 4.98 µmol/g liver and 4.41 µmol/g liver and 3.65 µmol/g liver
  GSSG, individual animal: 132 nmol/g liver and 120 nmol/g liver and 151 nmol/g liver and 147 nmol/g liver and 126 nmol/g liver
  tGSH, individual animal: 3.70 µmol/g liver and 4.21 µmol/g liver and 4.94 µmol/g liver and 5.28 µmol/g liver and 4.70 µmol/g liver and 3.91 µmol/g liver
Rat liver; 10 ppm NVP inhalation
  GSH (GSH recycling assay), group (mean ± SD): 4.19 ± 0.61 µmol/g liver
  GSSG, group (mean ± SD): 135 ± 12 nmol/g liver
  tGSH, group (mean ± SD): 4.46 ± 0.62 µmol/g liver
Rat liver; [5]
  GSH (GSH recycling assay), individual animal: 4.45 µmol/g liver and 4.57 µmol/g liver and 3.06 µmol/g liver and 3.48 µmol/g liver and 4.31 µmol/g liver and 4.35 µmol/g liver
  GSSG, individual animal: 151 nmol/g liver and 130 nmol/g liver and 106 nmol/g liver and 142 nmol/g liver and 121 nmol/g liver and 167 nmol/g liver
  tGSH, individual animal: 4.75 µmol/g liver and 4.83 µmol/g liver and 3.27 µmol/g liver and 3.77 µmol/g liver and 4.55 µmol/g liver and 4.68 µmol/g liver
Rat liver; 20 ppm NVP inhalation
  GSH (GSH recycling assay), group (mean ± SD): 4.04 ± 0.62 µmol/g liver
  GSSG, group (mean ± SD): 136 ± 22 nmol/g liver
Mice [1]
  Concentration at which erythrocytes, hematocrit and hemoglobin were reduced: 15 ppm
  LOAEC, liver (increased gamma-glutamyl transpeptidase and glutathione): 10 ppm
  LOAEC, nasal mucosa (inflammation, olfactory epithelium atrophy, basal cell hyperplasia): 5 ppm
Mice [2]
  Micronucleus test result: negative
Sprague–Dawley rats; female, 5 ppm
  Larynx squamous carcinoma, incidence: 0
  Liver hepatocellular carcinoma, incidence: 3
  Nasal cavity adenocarcinoma, incidence: 0
  Nasal cavity adenoma, incidence: 2
Sprague–Dawley rats; female, 10 ppm
  Larynx squamous carcinoma, incidence: 0
  Liver hepatocellular carcinoma, incidence: 6*
  Nasal cavity adenocarcinoma, incidence: 0
  Nasal cavity adenoma, incidence: 8**
Sprague–Dawley rats; female, 20 ppm
  Larynx squamous carcinoma, incidence: 4
  Liver hepatocellular carcinoma, incidence: 26***
  Nasal cavity adenocarcinoma, incidence: 4*
  Nasal cavity adenoma, incidence: 14***
Sprague–Dawley rats; male, 5 ppm
  Larynx squamous carcinoma, incidence: 0
  Liver hepatocellular carcinoma, incidence: 6*
  Nasal cavity adenocarcinoma, incidence: 0
  Nasal cavity adenoma, incidence: 9**
Sprague–Dawley rats; male, 10 ppm
  Larynx squamous carcinoma, incidence: 0
  Liver hepatocellular carcinoma, incidence: 5*
  Nasal cavity adenocarcinoma, incidence: 4*
  Nasal cavity adenoma, incidence: 9***
Sprague–Dawley rats; male, 20 ppm
  Larynx squamous carcinoma, incidence: 4
  Liver hepatocellular carcinoma, incidence: 17***
  Nasal cavity adenocarcinoma, incidence: 6*
  Nasal cavity adenoma, incidence: 11***
Sprague–Dawley rats; rat, inhalation, ref Klimisch et al. [1997a]
  Lowest tested dose at which hepatocellular carcinomas were observed: 5 ppm
